Measurements reported in patent publication EP4752152A1, “STEROID COMPOUND, AND PREPARATION METHOD THEREFOR AND USE THEREOF” (Cholesgen (Shanghai) Co.Ltd., priority 2023, dated 2025).

Test system: SREBP pathway
Assay: SREBP luciferase reporter gene system (SRE-luciferase assay)
Type: cell-based, human
Conditions: Huh-7/SRE-luc cells, sterol-deficient medium, 0.01-10 µM
Summary of the method: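 Readout was SRE-driven luciferase normalised to GFP fluorescence in lysates of stably transfected Huh-7/SRE-luc hepatoma cells. Compounds (0.01, 0.03, 0.1, 0.3, 1.0, 3.0, 10 µM; DMSO control) were applied for 16 h in sterol-depleted medium with 2 µM lovastatin and 10 µM mevalonate; IC50 from variable-slope fit.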

**Q.** Which IC50 (Homo sapiens, Huh-7, 16 h) does the source give for `COc1cccc(OC)c1C(O)CCC[C@@H](C)[C@H]1CC[C@H]2[C@H]3[C@H](CC[C@]12C)[C@@]1(C)CC[C@H](O)[C@H](O)[C@@H]1CC3(F)F` (stereo partly drawn) [Compound 116, (1R,3aS,3bS,5aR,6R,7S,9aR,9bS,11aR)-1-[(2R)-6-(2,6-dimethoxyphenyl)-6-hydroxyhexan-2-yl]-4,4-difluoro-9a,11a-dimethylhexadecahydro-1H-cyclopenta[1,2-a]phenanthrene-6,7-diol] here?
**A.** The IC50 was 0.177 µM.

**Q.** How did the IC50 (Homo sapiens, Huh-7, 16 h) turn out when `C[C@H](CCCC(O)c1cccc2cn[nH]c12)[C@H]1CC[C@H]2C3=C(F)C[C@H]4[C@@H](O)[C@@H](O)CC[C@]4(C)[C@H]3CC[C@]12C` (stereo partly drawn) [Compound 270, (1R,3aR,5aR,6R,7S,9aR,9bR,11aR)-4-fluoro-1-[(2R)-6-hydroxy-6-(1H-indazol-7-yl)hexan-2-yl]-9a,11a-dimethyl-2,3,3a,5,5a,6,7,8,9,9a,9b,10,11,11a-tetradecahydro-1H-cyclopenta[1,2-a]phenanthrene-6,7-diol] was run?
**A.** The IC50 was 0.259 µM.

**Q.** Which IC50 (Homo sapiens, Huh-7, 16 h) does the source give for `COc1cccc(F)c1C(O)CCCC(C)C1CCC2C3=C(F)CC4C(O)C(O)CCC4(C)C3CCC21C` (single isomer, unassigned) [Compound 163] here?
**A.** Its IC50 is 0.201 µM.

**Q.** For `COc1cccc(F)c1C(O)CCC[C@@H](C)[C@H]1CC[C@H]2[C@H]3[C@H](CC[C@]12C)[C@@]1(C)CC[C@H](O)C(=O)[C@@H]1CC3(F)F` (stereo partly drawn) [Compound 124, (1R,3aS,3bS,5aR,7S,9aR,9bS,11aR)-4,4-difluoro-1-[(2R)-6-(2-fluoro-6-methoxyphenyl)-6-hydroxyhexan-2-yl]-7-hydroxy-9a,11a-dimethylhexadecahydro-1H-cyclopenta[1,2-a]phenanthren-6-one], which IC50 (Homo sapiens, Huh-7, 16 h) is on record?
**A.** The IC50 was 0.064 µM.

**Q.** For `C[C@H](CCCC(O)c1ccccc1OC(F)(F)F)[C@H]1CC[C@H]2C3=C(F)C[C@H]4[C@@H](O)[C@@H](O)CC[C@]4(C)[C@H]3CC[C@]12C` (stereo partly drawn) [Compound 2, (1R,3aR,5aR,6R,7S,9aR,9bR,11aR)-4-fluoro-1-[(2R)-6-hydroxy-6-{2-[(trifluoromethyl)oxy]phenyl}hexan-2-yl]-9a,11a-dimethyl-2,3,3a,5,5a,6,7,8,9,9a,9b,10,11,11a-tetradecahydro-1H-cyclopenta[1,2-a]phenanthrene-6,7-diol], which IC50 (Homo sapiens, Huh-7, 16 h) is on record?
**A.** The IC50 was 0.45 µM.

**Q.** Which IC50 (16 hours) does the source give for `C[C@H](CCCC(O)c1cccc2[nH]ncc12)[C@H]1CC[C@H]2[C@H]3[C@H](CC[C@]12C)[C@@]1(C)CC[C@H](O)[C@H](O)[C@@H]1CC3(F)F` (single isomer, unassigned) [Compound 273, (1R,3aS,3bS,5aR,6R,7S,9aR,9bS,11aR)-4,4-difluoro-1-[(2R,6S)-6-hydroxy-6-(1H-indazol-4-yl)hexan-2-yl]-9a,11a-dimethylhexadecahydro-1H-cyclopenta[1,2-a]phenanthrene-6,7-diol or (1R,3aS,3bS,5aR,6R,7S,9aR,9bS,11aR)-4,4-difluoro-1-[(2R,6R)-6-hydroxy-6-(1H-indazol-4-yl)hexan-2-yl]-9a,11a-dimethylhexadecahydro-1H-cyclopenta[1,2-a]phenanthrene-6,7-diol] here?
**A.** Its IC50 is 0.361 µM.

**Q.** How did the IC50 (Homo sapiens, Huh-7, 16 h) turn out when `COc1ccc(C(O)CCC[C@@H](C)[C@H]2CC[C@H]3[C@H]4[C@H](CC[C@]23C)[C@@]2(C)CC[C@H](O)[C@H](O)[C@@H]2CC4(F)F)c(OC)c1` (stereo partly drawn) [Compound 183, (1R,3aS,3bS,5aR,6R,7 S,9aR,9bS,11aR)-1-[(2R)-6-(2,4-Dimethoxyphenyl)-6-hydroxyhexan-2-yl]-4,4-difluoro-9a,11a-dimethylhexadecahydro-1H-cyclopenta[1,2-a]phenanthrene-6,7-diol] was run?
**A.** Its IC50 is 0.141 µM.

**Q.** With `COc1ccc(F)cc1[C@@H](O)CCC[C@@H](C)[C@H]1CC[C@H]2[C@H]3[C@H](CC[C@]12C)[C@@]1(C)CC[C@H](O)[C@H](O)[C@@H]1CC3(F)F` [Compound 168, (1R,3aS,3bS,5aR,6R,7S,9aR,9bS,11aR)-4,4-difluoro-1-[(2R,6S)-6-(5-fluoro-2-methoxyphenyl)-6-hydroxyhexan-2-yl]-9a,11a-dimethylhexadecahydro-1H-cyclopenta[1,2-a]phenanthrene-6,7-diol] as the molecule, how does the IC50 (Homo sapiens, Huh-7, 16 h) read?
**A.** Its IC50 is 0.092 µM.

**Q.** `C[C@H](CCC(=O)N(C)c1ccccc1F)[C@H]1CC[C@H]2C3=C(F)C[C@H]4[C@@H](O)[C@@H](O)CC[C@]4(C)[C@H]3CC[C@]12C` [Compound 96, (4R)-4-[(1R,3aR,5aR,6R,7S,9aR,9bR,11aR)-4-fluoro-6,7-dihydroxy-9a,11a-dimethyl-2,3,3a,5,5a,6,7,8,9,9a,9b,10,11,11a-tetradecahydro-1H-cyclopenta[1,2-a]phenanthren-1-yl]-N-(2-fluorophenyl)-N-methylpentanamide] was tested. Which IC50 (Homo sapiens, Huh-7, 16 h) did it give?
**A.** Its IC50 is 0.34 µM.

**Q.** For `COc1ccnc(C[C@H](O)CCC[C@@H](C)[C@H]2CC[C@H]3[C@H]4[C@H](CC[C@]23C)[C@@]2(C)CC[C@H](O)[C@H](O)[C@@H]2CC4(F)F)c1` (stereo in doubt) [Compound 305, (1R,3aS,3bS,5aR,6R,7S,9aR,9bS,11aR)-4,4-difluoro-1-[(2R,6R)-6-hydroxy-7-(4-methoxypyridin-2-yl)heptan-2-yl]-9a,11a-dimethylhexadecahydro-1H-cyclopenta[1,2-a]phenanthrene-6,7-diol], which IC50 (Homo sapiens, Huh-7, 16 h) is on record?
**A.** The IC50 was 0.253 µM.

**Q.** How did the IC50 (Homo sapiens, Huh-7, 16 h) turn out when `COc1c(C(O)CCC[C@@H](C)[C@H]2CC[C@H]3[C@H]4[C@H](CC[C@]23C)[C@@]2(C)CC[C@H](O)[C@H](O)[C@@H]2CC4(F)F)ccc[n+]1[O-]` (stereo partly drawn) [Compound 267, 3-[(5R)-5-[(1R,3aS,3bS,5aR,6R,7S,9aR,9bS,11aR)-4,4-difluoro-6,7-dihydroxy-9a,11a-dimethylhexadecahydro-1H-cyclopenta[1,2-a]phenanthren-1-yl]-1-hydroxyhexyl]-2-methoxypyridine-1-oxide] was run?
**A.** The IC50 was 0.424 µM.

**Q.** `COc1cc(F)cc(OC)c1C(O)CCC[C@@H](C)[C@H]1CC[C@H]2[C@H]3[C@H](CC[C@]12C)[C@@]1(C)CC[C@H](O)[C@H](O)[C@@H]1CC3(F)F` (single isomer, unassigned) [Compound 222, (1R,3aS,3bS,5aR,6R,7S,9aR,9bS,11aR)-4,4-difluoro-1-[(2R,6S)-6-(4-fluoro-2,6-dimethoxyphenyl)-6-hydroxyhexan-2-yl]-9a,11a-dimethylhexadecahydro-1H-cyclopenta[1,2-a]phenanthrene-6,7-diol or (1R,3aS,3bS,5aR,6R,7S,9aR,9bS,11aR)-4,4-difluoro-1-[(2R,6R)-6-(4-fluoro-2,6-dimethoxyphenyl)-6-hydroxyhexan-2-yl]-9a,11a-dimethylhexadecahydro-1H-cyclopenta[1,2-a]phenanthrene-6,7-diol] was tested. Which IC50 (Homo sapiens, Huh-7, 16 h) did it give?
**A.** The IC50 was 0.137 µM.

**Q.** `C[C@H](CCC[C@H](O)c1nc2ccccc2n1C)[C@H]1CC[C@H]2[C@H]3[C@H](CC[C@]12C)[C@@]1(C)CC[C@H](O)[C@H](O)[C@@H]1CC3(F)F` [Compound 306, (1R,3aS,3bS,5aR,6R,7S,9aR,9bS,11aR)-4,4-difluoro-1-[(2R,6S)-6-hydroxy-6-(1-methylbenzo[d]imidazol-2-yl)hexan-2-yl]-9a,11a-dimethylhexadecahydro-1H-cyclopenta[1,2-a]phenanthrene-6,7-diol] was tested. Which IC50 (Homo sapiens, Huh-7, 16 h) did it give?
**A.** Its IC50 is 0.121 µM.

**Q.** For `COc1cc(F)cc(F)c1[C@@H](O)CCC[C@@H](C)[C@H]1CC[C@H]2C3=C(F)C[C@H]4[C@@H](O)[C@@H](O)CC[C@]4(C)[C@H]3CC[C@]12C` (single isomer, unassigned) [Compound 202], which IC50 (Homo sapiens, Huh-7, 16 h) is on record?
**A.** The IC50 was 0.411 µM.

**Q.** How did the IC50 (Homo sapiens, Huh-7, 16 h) turn out when `C[C@H](CCCC(O)c1ccccc1F)[C@H]1CC[C@H]2[C@H]3[C@H](CC[C@]12C)[C@@]1(C)CC[C@H](O)CC1CC3(F)F` (stereo partly drawn) [Compound 74, (1R,3aS,3bR,7S,9aS,9bS,11aR)-4,4-difluoro-1-[(2R)-6-(2-fluorophenyl)-6-hydroxyhexan-2-yl]-9a,11a-dimethylhexadecahydro-1H-cyclopenta[1,2-a]phenanthren-7-ol] was run?
**A.** The IC50 was 0.68 µM.

**Q.** Which IC50 (Homo sapiens, Huh-7, 16 h) does the source give for `COc1cc(F)c([C@@H](O)CCC[C@@H](C)[C@H]2CC[C@H]3[C@H]4[C@H](CC[C@]23C)[C@@]2(C)CC[C@H](O)[C@H](O)[C@@H]2CC4(F)F)c(F)n1` (single isomer, unassigned) [Compound 238] here?
**A.** Its IC50 is 0.289 µM.

**Q.** With `COc1ncc(F)cc1C(O)CCC[C@@H](C)[C@H]1CC[C@H]2[C@H]3[C@H](CC[C@]12C)[C@@]1(C)CC[C@H](O)[C@H](O)[C@@H]1CC3(F)F` (stereo partly drawn) [Compound 151, (1R,3aS,3bS,5aR,6R,7S,9aR,9bS,11aR)-4,4-difluoro-1-[(2R)-6-(5-fluoro-2-methoxypyridin-3-yl)-6-hydroxyhexan-2-yl]-9a,11a-dimethylhexadecahydro-1H-cyclopenta[1,2-a]phenanthrene-6,7-diol] as the molecule, how does the IC50 (Homo sapiens, Huh-7, 16 h) read?
**A.** Its IC50 is 0.18 µM.

**Q.** How did the IC50 (Homo sapiens, Huh-7, 16 h) turn out when `C[C@H](CCCC(O)c1cccc2nn[nH]c12)[C@H]1CC[C@H]2[C@H]3[C@H](CC[C@]12C)[C@@]1(C)CC[C@H](O)[C@H](O)[C@@H]1CC3(F)F` (stereo partly drawn) [Compound 282, (1R,3aS,3bS,5aR,6R,7 S,9aR,9bS,11aR)-4,4-Difluoro-1-[(2R)-6-hydroxy-6-(3H-benzo[d][1,2,3]triazol-4-yl)hexan-2-yl]-9a,11a-dimethylhexadecahydro-1H-cyclopenta[1,2-a]phenanthrene-6,7-diol] was run?
**A.** The IC50 was 0.389 µM.

**Q.** Which IC50 (16 hours) does the source give for `C[C@H](CCCC(O)c1cccc2cn[nH]c12)[C@H]1CC[C@H]2[C@H]3[C@H](CC[C@]12C)[C@@]1(C)CC[C@H](O)[C@H](O)[C@@H]1CC3(F)F` (single isomer, unassigned) [Compound 269, (1R,3aS,3bS,5aR,6R,7S,9aR,9bS,11aR)-4,4-difluoro-1-[(2R,6R)-6-hydroxy-6-(1H-indazol-7-yl)hexan-2-yl]-9a,11a-dimethylhexadecahydro-1H-cyclopenta[1,2-a]phenanthrene-6,7-diol or (1R,3aS,3bS,5aR,6R,7S,9aR,9bS,11aR)-4,4-difluoro-1-[(2R,6S)-6-hydroxy-6-(1H-indazol-7-yl)hexan-2-yl]-9a,11a-dimethylhexadecahydro-1H-cyclopenta[1,2-a]phenanthrene-6,7-diol] here?
**A.** The IC50 was 0.8 µM.

**Q.** `COc1ccnc(F)c1C(O)CCC[C@@H](C)[C@H]1CC[C@H]2C3=C(F)C[C@H]4[C@@H](O)[C@@H](O)CC[C@]4(C)[C@H]3CC[C@]12C` (stereo partly drawn) [Compound 150, (1R,3aR,5aR,6R,7S,9aR,9bR,11aR)-4-fluoro-1-[(2R)-6-(2-fluoro-4-methoxypyridin-3-yl)-6-hydroxyhexan-2-yl]-9a,11a-dimethyl-2,3,3a,5,5a,6,7,8,9,9a,9b,10,11,11a-tetradecahydro-1H-cyclopenta[1,2-a]phenanthrene-6,7-diol] was tested. Which IC50 (Homo sapiens, Huh-7, 16 h) did it give?
**A.** Its IC50 is 0.19 µM.
